This data set in a line: Excitation and emission profiles by spectrofluorophotometer. Type of data set: physicochemical. To be noted: 100% ethanol. As to the method:
FIGS. 2a-2c show the excitation and emission profiles of candidate ALDH substrates. (a) AldeRed 493 aldehyde diethyl acetal, (b) AldeRed 588 aldehyde diethyl acetal, (c) AldeRed 659 aldehyde diethyl acetal. All the compounds were dissolved in 100% ethanol and both excitation and emission profiles were measured in 100% ethanol. The emission spectrum was measured with excitation at 493 nm for AldeRed 493 aldehyde diethyl acetal, at 560 nm for AldeRed 588, and at 650 nm for AldeRed 659-A. Blue line: excitation spectrum; red line: emission spectrum;
Reagents and Analyses. BODIPY® 576/589 succinimidyl ester and BODIPY® 650/665 succinimidyl ester were purchased from Life Technologies Inc., (Grand Island, N.Y.). (E)-4-(4-(dimethylamino)styryl)-1-(3-isothiocyanatopropyl)pyridin-1-ium chloride 1 was synthesized analogously to the previously reported di-butyl analog. Hassner, A., et al., J Org. Chem. 49, 2546-2551 (1984). Chemicals and solvents for synthesis and high-performance liquid chromatography (HPLC) were acquired from Sigma-Aldrich (Milwaukee, Wis.) or Fisher Scientific (Pittsburgh, Pa.), and used without further purification. HPLC was performed on an Agilent Prostar System equipped with a 325 Variable wavelength detector and controlled by Galaxie Software using a Phenomenex 4.6×250 mm Luna C18, 10 micron column. AldeRed 493 aldehyde diethyl acetal (FIGS. 14a-14b) and AldeRed 493-A (FIGS. 14c-14d) were chromatographed using Method 1. AldeRed 588 aldehyde diethyl acetal (FIGS. 15a-15b), AldeRed 588-A (FIGS. 15c-15d), AldeRed 659 aldehyde diethyl acetal (FIGS. 16a-16b), AldeRed 659-A (FIGS. 16c-16d) were chromatographed using Method 2. Method 1: Solvent A: 100% water; Solvent B: 100% methanol; 0-5 min 100% A, 5-25 min linear gradient from 100% A to 100% B, 25-30 min 100% B, 30-35 min linear gradient from 100% B to 100% A, 35-38 min 100% A, 2 mL/min. Method 2: Solvent A: 100% water; Solvent B: 100% acetonitrile; 0-20 min linear gradient from 90% A/10% B to 10% A/90% B; 20-25 min 10% A/90% B, 25-30 min linear gradient from 10% A/90% B to 90% A/10% B, 2 mL/min. ^1H-NMR spectra were obtained on a Bruker Avance 400 MHz Spectrometer. High resolution mass spectra were obtained by the University of Notre Dame Mass Spectrometry & Proteomics Facility (Notre Dame, Ind.) using ESI either by direct infusion on a Bruker micrOTOF-II or by LC elution via an ultra-high pressure Dionex® RSLC with C18 column coupled with a Bruker micrOTOF-Q II. The excitation and emission profiles of synthesized products were measured using a spectrofluorophotometer (Shimadzu, RF-5301pc, Columbia, Md.).
Three representative substrates of ALDH containing fluorophores that emit in the red region of the spectrum were synthesized (FIG. 1). […]

The source of these data is patent US10156521B2, “Red fluorescent aldehyde dehydrogenase (ALDH) substrate” (THE JOHNS HOPKINS UNIVERSITY, priority 2013, dated 2018).

In turn, `CCOC(CNC(=S)NCCC[n+]1ccc(C=Cc2ccc(N(C)C)cc2)cc1)OCC.[Cl-]` [compound 4] gave a Maximum emission wavelength of 590 nm and a Maximum excitation wavelength of 493 nm.
As to `CCOC(CNC(=O)CCc1ccc2n1[B-](F)(F)[N+]1=C(c3ccc[nH]3)C=CC1=C2)OCC` [compound 5], the Maximum emission wavelength is 599 nm and the Maximum excitation wavelength stood at 588 nm.
